Experiments:
[1] = Human microsome stability assay; assay type: in vitro ADME; settings: 1 µM test compound, 0.5 mg/mL liver microsomal protein, 37° C., pH 7.4
Protocol: The human microsomal stability assay is used for early assessment of metabolic stability of a test compound in human liver microsomes.
Human liver microsomes (Cat.NO.: 452117, Corning, USA;Cat.NO.:H2610, Xenotech, USA) were preincubated with test compound for 10 minutes at 37° C. in 100 mM potassium phosphate buffer, pH 7.4. The reactions were initiated by adding NADPH regenerating system. The final incubation mixtures contained 1 µM test compound, 0.5 mg/mL liver microsomal protein, 1 mM MgCl2, 1 mM NADP, 1 unit/mL isocitric dehydrogenase and 6 mM isocitric acid in 100 mM potassium phosphate buffer, pH 7.4. After incubation times of 0, 3, 6, 9, 15 and 30 minutes at 37° C., 300 µL of cold acetonitrile (including internal standard) was added to 100 µL incubation mixture to terminate the reaction. Following precipitation and centrifugation, the amount of compound remaining in the samples were determined by LC-MS/MS. Controls of no NADPH regenerating system at zero and 30 minutes were also prepared and analyzed.

[2] = Parallel Artificial Membrane Permeability Assay (PAMPA); assay type: in vitro ADME; settings: for Membrane Retention / Papp at 4 h: PAMPA; for Membrane Retention: pH 7.40, 4 hours; for Papp at 4 h: pH 7.4, pH 7.40, room temperature, read-out: PAMPA Pe; for PAMPA category: class from Pe and membrane retention
Protocol: PAMPA (Parallel Artificial Membrane Permeability Assay) is a first-line permeability screen for drug candidates. This assay mimics the transcellular absorption conditions using an artificial phospholipid membrane and generates a permeability value that can be used for compound ranking and optimization as well as input parameters for in silico models to predict intestinal absorption.
Permeation experiments are carried out in hydrophobic PVDF 96-well microtiter filter plates (MultiScreen Filter Plate, Millipore, #MAIPN4550). Each well is coated with PVDF membrane, which is prepared with 5 µL Dodecane (Sigma, D221104) that contains 1% lecithin (Sigma, P3556-1G).
The typical PAMPA experimental protocol is as follows: The donor plate is placed on a Teflon acceptor plate that has been pre-filled with 150 µL of 100 mM PBS buffer (2.6 g KH2PO4 and 18.5 g K2HPO4.3H2O are dissolved in about 1000 mL of ultra-pure water and mixed thoroughly. The pH is adjusted to 7.40 ± 0.05, using either 1 M sodium hydroxide or 1 M hydrochloric acid.) containing 5% DMSO. The filter on the bottom of each acceptor well is filled with 300 µL of 100 mM PBS buffer (2.6 g KH2PO4 and 18.5 g K2HPO4.3H2O are dissolved in about 1000 mL of ultra-pure water, mixed thoroughly. The pH was adjusted to 7.40 ± 0.05, using either 1 M sodium hydroxide or 1 M hydrochloric acid.). The resulting sandwich is incubated at room temperature under constant shaking (300 rpm) for 4 hours. The sandwich is then disassembled. Before incubation, spike 20 µL dosing solution and mix with 250 µL PBS and 130 µL quench solution (acetonitrile) as T0 sample. After incubation, collect 270 µL solutions from acceptor chamber, followed by the addition of 130 µL acetonitrile. Collect 20 µL solution from donor chamber and add 250 µL PBS and 130 µL acetonitrile. The concentration of compound in all samples are determined by LC-MS/MS and the equations for determining the permeability (Pe, 10^-6 cm/s ) are as follows.
VD is the volume of the donor well; VR is the volume of the acceptor well; Area is the active surface area of membrane; Time is the incubation time (14,400 s in this assay); CR and CD are the concentrations of compound in acceptor and donor solutions, respectively, at the completion of the assay; C0 is the concentration of compound in donor solution before incubation.
The main readout of the PAMPA assay is the permeability value Pe expressed in 10^-6 cm/s. Secondary readouts determined are the amounts of compound in the donor and acceptor compartments as well as compound retention in the membrane. Depending on the permeation rate and the membrane retention, compounds are classified as “low” (Pe < 0.2 and membrane retention <20%) or “medium & high” (Pe >= 0.2; or Pe < 0.2 and membrane retention >= 20%). Each sample is measured in triplicate; the standard deviation is determined for the permeation constant Pe.

SMILES | Clearance of Human microsome [1] | Membrane Retention [2] | Papp at 4 h [2] | PAMPA category [2]
Cc1cc(-c2ccc(N3CCN(Cc4cnc(N5CCNCC5)cn4)CC3)nc2C(C)C)cn(C)c1=O [Example 8, 5-[2-isopropyl-6-[4-[(5-piperazin-1-ylpyrazin-2-yl)methyl]piperazin-1-yl]-3-pyridyl]-1,3-dimethyl-pyridin-2-one] | 8.3 mL/min/kg | 21.370% | 0.95 ×10⁻⁶ cm/s | medium & high (“medium & high” (Pe >= 0.2; or Pe < 0.2 and membrane retention >= 20%))
Cc1cc(-c2ccc(N3CCN(Cc4cnc(N5CCNCC5)nc4)CC3)nc2C(C)C)cn(C)c1=O [Example 9, 5-[2-isopropyl-6-[4-[(2-piperazin-1-ylpyrimidin-5-yl)methyl]piperazin-1-yl]-3-pyridyl]-1,3-dimethyl-pyridin-2-one] | 7.8 mL/min/kg | 27.230% | 0.78 ×10⁻⁶ cm/s | medium & high (“medium & high” (Pe >= 0.2; or Pe < 0.2 and membrane retention >= 20%))
Cc1cc(-c2ccc(N3CCC(N4CCNCC4)CC3)nc2C(C)C)cn(C)c1=O [Example 18, 5-[2-isopropyl-6-(4-piperazin-1-yl-1-piperidyl)-3-pyridyl]-1,3-dimethyl-pyridin-2-one] | 7.5 mL/min/kg | 8.650% | 0.74 ×10⁻⁶ cm/s | medium & high (“medium & high” (Pe >= 0.2; or Pe < 0.2 and membrane retention >= 20%))
Cc1cc(-c2ccc(N3CCN(Cc4cccc(N5CCNCC5)c4)CC3)nc2C(C)C)cn(C)c1=O [Example 14, 5-[2-isopropyl-6-[4-[(3-piperazin-1-ylphenyl)methyl]piperazin-1-yl]-3-pyridyl]-1,3-dimethyl-pyridin-2-one] | 8.3 mL/min/kg | 38.020% | 0.54 ×10⁻⁶ cm/s | medium & high (“medium & high” (Pe >= 0.2; or Pe < 0.2 and membrane retention >= 20%))

From patent US20230295109A1, “PYRIDINONE COMPOUNDS FOR THE TREATMENT OF AUTOIMMUNE DISEASE” (F. Hoffmann-La Roche AG, priority 2020, published 2023)
